Assay results as given in ChEMBL document CHEMBL2062415, “Steroids from Commiphora mukul display antiproliferative effect against human prostate cancer PC3 cells via induction of apoptosis” (Bioorg Med Chem Lett, 2012).

How the values were obtained:
PC-3 [1] = assay: Cytotoxicity against human PC3 cells after 24 hrs by MTT assay; assay type: functional, cell-based; settings: PC-3, 24 h
MCF7 [2] = assay: Induction of apoptosis in human MCF7 cells assessed as accumulation at G0/G1 phase at 5 uM after 48 hrs by propidium iodide staining-based flow cytometric analysis (reference value: 67.46%); assay type: functional
DU-145 [3] = assay: Induction of apoptosis in human DU145 cells assessed as necrotic cells at 20 uM after 48 hrs by annexinV/propidium iodide staining-based FITC analysis (reference value: 0.35%); assay type: functional
PC-3 [4] = assay: Induction of apoptosis in human PC3 cells assessed as increase in PARP cleavage product after 48 hrs by Western blot analysis; assay type: functional, cell-based
K562 [5] = assay: Induction of apoptosis in human K562 cells assessed as late apoptotic cells at 1 uM after 48 hrs by annexinV/propidium iodide staining-based FITC analysis (reference value: 2.55%); assay type: functional
PC-3 [6] = assay: Cell cycle arrest in human PC3 cells assessed as accumulation at G2/M phase at 10 uM after 48 hrs by propidium iodide staining-based flow cytometric analysis relative to control; assay type: functional
MCF7 [7] = assay: Induction of apoptosis in human MCF7 cells assessed as early apoptotic cells at 10 uM after 48 hrs by annexinV/propidium iodide staining-based FITC analysis (reference value: 5.48%); assay type: functional
MCF7 [8] = assay: Cytotoxicity against human MCF7 cells assessed as cell viability at 10 uM after 24 hrs by MTT assay; assay type: functional; settings: MCF7, 24 h, read-out: Activity
K562 [9] = assay: Induction of apoptosis in human K562 cells assessed as accumulation at G0/G1 phase at 1 uM after 48 hrs by propidium iodide staining-based flow cytometric analysis (reference value: 38.61%); assay type: functional
DU-145 [10] = assay: Induction of apoptosis in human DU145 cells assessed as late apoptotic cells at 10 uM after 48 hrs by annexinV/propidium iodide staining-based FITC analysis (reference value: 2.78%); assay type: functional
DU-145 [11] = assay: Induction of apoptosis in human DU145 cells assessed as early apoptotic cells at 20 uM after 48 hrs by annexinV/propidium iodide staining-based FITC analysis (reference value: 2.34%); assay type: functional
K562 [12] = assay: Induction of apoptosis in human K562 cells assessed as accumulation at S phase at 10 uM after 48 hrs by propidium iodide staining-based flow cytometric analysis (reference value: 45.67%); assay type: functional
DU-145 [13] = assay: Induction of apoptosis in human DU145cells assessed as late apoptotic cells at 20 uM after 48 hrs by annexinV/propidium iodide staining-based FITC analysis (reference value: 2.78%); assay type: functional
PC-3 [14] = assay: Cell cycle arrest in human PC3 cells assessed as accumulation at G2/M phase at 5 uM after 48 hrs by propidium iodide staining-based flow cytometric analysis relative to control; assay type: functional
PC-3 [15] = assay: Cell cycle arrest in human PC3 cells assessed as accumulation at G0/G1 phase at 20 uM after 48 hrs by propidium iodide staining-based flow cytometric analysis relative to control; assay type: functional
K562 [16] = assay: Induction of apoptosis in human K562 cells assessed as accumulation at G0/G1 phase at 5 uM after 48 hrs by propidium iodide staining-based flow cytometric analysis (reference value: 38.61%); assay type: functional
PC-3 [17] = assay: Cell cycle arrest in human PC3 cells assessed as accumulation at G0/G1 phase at 5 uM after 48 hrs by propidium iodide staining-based flow cytometric analysis relative to control; assay type: functional
PC-3 [18] = assay: Induction of apoptosis in human PC3 cells assessed as necrotic cells at 20 uM after 48 hrs by annexinV/propidium iodide staining-based FITC analysis relative to control; assay type: functional
MCF7 [19] = assay: Induction of apoptosis in human MCF7 cells assessed as accumulation at S phase at 20 uM after 48 hrs by propidium iodide staining-based flow cytometric analysis (reference value: 22.99%); assay type: functional
DU-145 [20] = assay: Induction of apoptosis in human DU145 cells assessed as early apoptotic cells at 40 uM after 48 hrs by annexinV/propidium iodide staining-based FITC analysis (reference value: 2.34%); assay type: functional
PC-3 [21] = assay: Induction of apoptosis in human PC3 cells assessed as early apoptotic cells at 5 uM after 48 hrs by annexinV/propidium iodide staining-based FITC analysis relative to control; assay type: functional
DU-145 [22] = assay: Induction of apoptosis in human DU145 cells assessed as necrotic cells at 10 uM after 48 hrs by annexinV/propidium iodide staining-based FITC analysis (reference value: 0.35%); assay type: functional
K562 [23] = assay: Induction of apoptosis in human K562 cells assessed as late apoptotic cells at 10 uM after 48 hrs by annexinV/propidium iodide staining-based FITC analysis (reference value: 2.55%); assay type: functional
MCF7 [24] = assay: Induction of apoptosis in human MCF7 cells assessed as accumulation at G0/G1 phase at 10 uM after 48 hrs by propidium iodide staining-based flow cytometric analysis (reference value: 67.46%); assay type: functional
MCF7 [25] = assay: Induction of apoptosis in human MCF7 cells assessed as necrotic cells at 20 uM after 48 hrs by annexinV/propidium iodide staining-based FITC analysis (reference value: 8.28%); assay type: functional
PC-3 [26] = assay: Cell cycle arrest in human PC3 cells assessed as accumulation at S phase at 20 uM after 48 hrs by propidium iodide staining-based flow cytometric analysis relative to control; assay type: functional
DU-145 [27] = assay: Induction of apoptosis in human DU145 cells assessed as accumulation at G2/M phase at 40 uM after 48 hrs by propidium iodide staining-based flow cytometric analysis (reference value: 16.14%); assay type: functional
MCF7 [28] = assay: Induction of apoptosis in human MCF7 cells assessed as accumulation at S phase at 10 uM after 48 hrs by propidium iodide staining-based flow cytometric analysis (reference value: 22.99%); assay type: functional
K562 [29] = assay: Induction of apoptosis in human K562 cells assessed as necrotic cells at 5 uM after 48 hrs by annexinV/propidium iodide staining-based FITC analysis (reference value: 1.19%); assay type: functional
MCF7 [30] = assay: Induction of apoptosis in human MCF7 cells assessed as accumulation at S phase at 5 uM after 48 hrs by propidium iodide staining-based flow cytometric analysis (reference value: 22.99%); assay type: functional
MCF7 [31] = assay: Induction of apoptosis in human MCF7 cells assessed as necrotic cells at 10 uM after 48 hrs by annexinV/propidium iodide staining-based FITC analysis (reference value: 8.28%); assay type: functional
K562 [32] = assay: Induction of apoptosis in human K562 cells assessed as accumulation at S phase at 5 uM after 48 hrs by propidium iodide staining-based flow cytometric analysis (reference value: 45.67%); assay type: functional
K562 [33] = assay: Induction of apoptosis in human K562 cells assessed as accumulation at G2/M phase at 5 uM after 48 hrs by propidium iodide staining-based flow cytometric analysis (reference value: 15.72%); assay type: functional
MCF7 [34] = assay: Induction of apoptosis in human MCF7 cells assessed as accumulation at G2/M phase at 10 uM after 48 hrs by propidium iodide staining-based flow cytometric analysis (reference value: 9.55%); assay type: functional
PC-3 [35] = assay: Increase in Bax protein level in human PC3 cells after 48 hrs by Western blot analysis; assay type: functional, cell-based
DU-145 [36] = assay: Induction of apoptosis in human DU145 cells assessed as early apoptotic cells at 10 uM after 48 hrs by annexinV/propidium iodide staining-based FITC analysis (reference value: 2.34%); assay type: functional

CC[C@H](/C=C/[C@@H](C)[C@H]1CC[C@H]2[C@H]3[C@H]([C@H](O)C[C@]12C)[C@@]1(C)CC[C@H](O)CC1=C[C@H]3O)C(C)C
IC50 (PC-3 [1]): 10.9 µM
Activity (MCF7 [2]): 72.36%
Activity (DU-145 [3]): 2.38%
Activity (PC-3 [4]): Dose-dependent effect
Activity (K562 [5]): 1.79%
Activity (PC-3 [6]): 24.03%
Activity (MCF7 [7]): 6.81%
viability at 10 µM (MCF7 [8]): 36%
Activity (K562 [9]): 41.16%
Activity (DU-145 [10]): 2.48%
Activity (DU-145 [11]): 2.12%
Activity (K562 [12]): 48.25%
Activity (DU-145 [13]): 5.73%
Activity (PC-3 [14]): 14.11%
Activity (PC-3 [15]): 55.82%
Activity (K562 [16]): 40.79%
Activity (PC-3 [17]): 59%
Activity (PC-3 [18]): 2.79%
Activity (MCF7 [19]): 19.37%
Activity (DU-145 [20]): 3.13%
Activity (PC-3 [21]): 1.05%
Activity (DU-145 [22]): 0.28%
Activity (K562 [23]): 2.62%
Activity (MCF7 [24]): 71.05%
Activity (MCF7 [25]): 4.8%
Activity (PC-3 [26]): 14.34%
Activity (DU-145 [27]): 35.85%
Activity (MCF7 [28]): 18.92%
Activity (K562 [29]): 1.59%
Activity (MCF7 [30]): 19.09%
Activity (MCF7 [31]): 4.47%
Activity (K562 [32]): 45.5%
Activity (K562 [33]): 13.71%
Activity (MCF7 [34]): 10.03%
Activity (PC-3 [35]): Dose-dependent effect
Activity (DU-145 [36]): 4.02%
